Measurements: patent publication US20080155704A1, “Methods and Compositions for Determining in vivo Activity of BiP” (King's College London, priority 2006, published 2008)

Columns and labels:
Assay type in all cases: cell-based, human
T cells = experiment: Regulatory markers on T cells co-cultured with BiP-treated dendritic cells
Method: FIG. 11: Co-culture of T cells with BiP-treated dendritic cells (DC) upregulates regulatory markers. […] Mean ±standard deviation of three experiments is shown.
Intracellular staining was carried out with fixed cells incubated with 1% paraformaldehyde in IF buffer for 5 minutes at room temperature. The cells were washed twice with IF buffer containing 0.3% saponin for permeabilization. 0.3% saponin was then present in all IF buffer used thereafter. CTLA-4/CD152 (BD), FoxP3 (eBioscience) and indolamine 2,3-dioxygenase (Santa Cruz) and cytokines required intracellular staining. Antibodies were added at the pre-determined optimal concentration for 20 mins and then the cells were washed twice with IF buffer and analysed. Isotype controls, IgG1 and IgG2a (Becton Dickinson, Oxford, UK) were used in parallel. Cells were analysed on a FACScan cytometer using Cellquest software (Becton Dickinson, Oxford, UK).
T cells were purified from peripheral blood mononuclear cells and set up in culture with either allogeneic or autologous dendritic cells, which had been washed and irradiated, at a ratio of 10 T cells:1 DC. The cells were co-cultured in a 24 well plate in 1 ml/well, in RPMI 1640 supplemented with 10% foetal calf serum, for 4 days then the T cells were removed and washed before being investigated for the presence of T regulatory cells (see below)
Immunofluorescent staining was performed, as described previously (39), on DC harvested at day 7, T cells after 4 days co-culture with DC. Saturating concentrations of fluorescein isothiocyanate (FITC)-, phycoerythrin (PE) or peridium chlorophyll (Per-CP)-conjugated mAb were added recognizing CD14, CD86, CD80, HLA-DR, CD11c, CD1a, CD83, CD85j, IL-10 receptor; purity of the negatively selected MO and T cells was checked using CD3, CD4, CD14, CD20 and CD57 (all from Becton Dickinson/PharMingen (BD), Oxford, UK). Intracellular staining was carried out following fixation of cells with 1% paraformaldehyde for 5 minutes. Cells were then washed with immunofluorescence buffer (PBS/0.1% BSA/0.05% azide) containing 0.3% saponin. 0.3% saponin was then present in all solutions thereafter. CD152/CTLA-4 (BD, Oxford UK) and IDO (Santa Cruz, Autogen Bioclear, UK) were intracellular stains. Isotype controls, IgG1 and IgG2a (BD, Oxford, UK) were used in parallel. Cells were analysed on a FACScan/FACScalibur cytometers using Cellquest software (BD, Oxford, UK).

IL-10 = IL-10 production by dendritic cell cultures (ELISA); conditions: 3d GM-CSF and IL-4 with BiP 20 μg/ml; inhibitors 10 μM, anti-IL-10 added at day 0 (FIG. 13D)
Method: (§1) Supernatant samples were collected on day 1, 3 and 7 for iDC and from the final cultures of the T cells taken from the iDC/mDC-T cell allogeneic test system and set up with autologous cells to determine if there was any regulatory activity. The samples were aliquoted and frozen at −70° C. until required. Production IL-10 was quantified by ELISA using paired antibodies and recombinant standards (PharMingen, Oxford, UK) according to the recommendations of the manufacturer. In addition some were analysed by cytometric bead assay (BD, Oxford, UK) according to the manufacturers instructions.
(§2) To neutralize IL-10 within the cultures anti-IL-10 antibody (ATCC, Rockville, USA) was added at day 0 (5 μg/ml) to GM-CSF and IL-4 treated cultures in the presence and absence of BiP (20 μg/ml). Two specific cell-permeable inhibitors of the MAPK intracellular signalling pathways were used. SB203580 (SB)(10 μM)((Calbiochem, Darmstadt, Germany) inhibits p38 MAPK, and PD98059 (PD) (10 μM)(Calbiochem), an inhibitor of MAPK extracellular signal regulated kinase (ERK), were tested. MO were pre-treated with the inhibitors for 2 h before adding GM-CSF and IL-4 in the presence or absence of BiP.
as §1, with “of the pro-inflammatory cytokine, TNFα, and the anti-inflammatory cytokine, IL-10,” for “IL-10”

allogeneic T cells = experiment: Allogeneic proliferative response to early BiP treated DC (tritiated thymidine uptake); conditions: early DC 72 h; inhibitors 10 μM 2 h pre-treatment of monocytes; anti-IL-10 neutralizing antibody (FIG. 13A, B)
Method: Allogeneic responses by T cells in culture with irradiated (3,000 rads) early DC (eDC), after only 3d in culture with GM-CSF and IL-4 in the presence or absence of BiP (20 μg/ml) at a ratio of 10:1 PBMC:DC (105:10^4 cells/well). The results are shown as an allogeneic proliferative response (A) following addition of neutralizing anti-IL-10 ( 1/100 dilution) antibody and (B) the pre-treatment (2 h) of monocytes (MO) with p38 inhibitor, SB203580 (SB)(10 μM) or the ERK1/2 inhibitor, PD 98059 (PD)(10 μM), prior to the addition of GM-CSF and IL-4 to the cultures. The proliferation of PBMC to early DC following (C) the addition of BiP 24 h post addition of GM-CSF and IL-4. Proliferation was measured by uptake of tritiated thymidine and recorded as counts per minute (cpm). ELISA was used to detect IL-10 (D) in the culture supernatants and (E) by 7d cultured iDC/iDC(BiP) and fully matured mDC/mDC(BiP) differentiated as described in following 7d culture in GM-CSF and IL-4 with LPS (500 ng/ml) added for the final 2d.
as §2

SMILES | proliferation of T cells in an allogeneic response after co-culture with 1MT (T cells; 1MT 200 μM added to co-cultures of T cells with autologous mDC or mDC(BiP)) | T cell expression of intracellular CTLA-4 in the presence of 1MT (T cells; 1MT 200 μM in mDC/mDC(BiP)-T cell co-cultures, n=3) | IL-10 production by early DC(BiP) cultures (IL-10) | reversal of BiP's inhibitory activity on the allogeneic response (allogeneic T cells)
Cn1cc(C[C@H](N)C(=O)O)c2ccccc21 [1MT, 1 methyl tryptophan, reference compound] | increased proliferation by the T cells | significant reduction in T cell expression of CTLA-4 | – | –
COc1cccc(-c2cc(=O)c3ccccc3o2)c1N [PD98059, reference compound] | – | – | did not inhibit IL-10 production | could not
C[S+]([O-])c1ccc(-c2nc(-c3ccncc3)c(-c3ccc(F)cc3)[nH]2)cc1 (stereo not drawn) [SB203580, reference compound] | – | – | not detected | totally reversed BiP's inhibitory activity
